Laboratory results from US7795290B2 (Genentech, Inc., priority 2004, dated 2010).

Target: T1, AKT1 (Homo sapiens, UniProt P31749)
T1 construct: purchased Upstate 14-276
Assay: HTS ATP-utilizing enzyme assay, off-chip mobility-shift (Caliper HTS 250)
Format: biochemical
Details: kinase named = inhibitory activity/selectivity; test compound 10 μM; active = greater than three-sigma from mean
In short: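 AKT1 activity was measured by off-chip mobility shift (Caliper HTS 250) as the ratio of peptide substrate to phosphorylated product. Test compound was at 10 μM, with 2.5 h incubation at 20–22° C. EDTA wells served as 100% control and DMSO wells as 0%. Hits were called at three-sigma limits.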

T1 sequence (P31749 whole entry): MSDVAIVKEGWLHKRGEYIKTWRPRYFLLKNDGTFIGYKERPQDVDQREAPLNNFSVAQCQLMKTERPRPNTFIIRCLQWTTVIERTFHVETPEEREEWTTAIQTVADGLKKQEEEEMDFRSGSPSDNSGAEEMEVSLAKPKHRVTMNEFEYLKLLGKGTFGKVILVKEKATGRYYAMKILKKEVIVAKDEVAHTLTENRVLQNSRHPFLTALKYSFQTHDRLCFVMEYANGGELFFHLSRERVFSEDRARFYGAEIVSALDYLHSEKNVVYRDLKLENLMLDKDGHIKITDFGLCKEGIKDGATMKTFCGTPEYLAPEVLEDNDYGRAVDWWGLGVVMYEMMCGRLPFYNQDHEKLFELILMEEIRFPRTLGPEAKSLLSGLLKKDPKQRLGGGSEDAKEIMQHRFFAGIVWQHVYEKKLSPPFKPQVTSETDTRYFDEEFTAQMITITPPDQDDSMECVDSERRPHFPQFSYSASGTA

Row | SMILES | Activity
1 | O=C(c1ccco1)N(CCCN1CCOCC1)c1nc(-c2cc(-c3ccccc3)no2)cs1 [N-(3-morpholinopropyl)-N-(4-(3-phenylisoxazol-5-yl)thiazol-2-yl)furan-2-carboxamide] | AKT1
2 | NC(=O)C1CCCN1C(=O)CCCN(C(=O)c1cccs1)c1nc(-c2cc3ccccc3o2)cs1 (stereo not drawn) [1-(4-(N-(4-(benzofuran-2-yl)thiazol-2-yl)thiophene-2-carboxamido)butanoyl)pyrrolidine-2-carboxamide] | AKT1
3 | O=C(c1cccs1)N(CCCN1CCCC1)c1nc(-c2ccccc2)cs1 [N-(4-phenylthiazol-2-yl)-N-(3-(pyrrolidin-1-yl)propyl)thiophene-2-carboxamide] | AKT1
4 | CCOC(=O)c1cc(-c2csc(N(CCCN3CCOCC3)C(=O)c3cccs3)n2)on1 [ethyl 5-(2-(N-(3-morpholinopropyl)thiophene-2-carboxamido)thiazol-4-yl)isoxazole-3-carboxylate] | AKT1
5 | COc1ccc(-c2csc(N(CCCN3CCOCC3)C(=O)C3CCCCC3)n2)cc1 [N-(4-(4-methoxyphenyl)thiazol-2-yl)-N-(3-morpholinopropyl)cyclohexanecarboxamide] | AKT1
6 | CC(=O)NC1CCN(C(=O)CCCN(C(=O)c2cccs2)c2nc(-c3cc4ccccc4o3)cs2)C1 (stereo not drawn) [N-(4-(3-acetamidopyrrolidin-1-yl)-4-oxobutyl)-N-(4-(benzofuran-2-yl)thiazol-2-yl)thiophene-2-carboxamide] | AKT1
7 | CN(C)CCCOc1ccc(-c2csc(N(CCCN3CCOCC3)C(=O)c3cccs3)n2)cc1 [N-(4-(4-(3-(dimethylamino)propoxy)phenyl)thiazol-2-yl)-N-(3-morpholinopropyl)thiophene-2-carboxamide] | AKT1
8 | O=C(c1cccs1)N(CCCN1CCCC(O)C1)c1nc(-c2cc3ccccc3o2)cs1 (stereo not drawn) [N-(4-(benzofuran-2-yl)thiazol-2-yl)-N-(3-(3-hydroxypiperidin-1-yl)propyl)thiophene-2-carboxamide] | AKT1
9 | COc1ccc(-c2csc(N(CCCN3CCCC3)C(=O)c3ccccc3)n2)cc1 [N-(4-(4-methoxyphenyl)thiazol-2-yl)-N-(3-(pyrrolidin-1-yl)propyl)benzamide] | AKT1
10 | O=C(O)COc1ccc(-c2csc(N(CCCN3CCOCC3)C(=O)c3cccs3)n2)cc1 [2-(4-(2-(N-(3-morpholinopropyl)thiophene-2-carboxamido)thiazol-4-yl)phenoxy)acetic acid] | AKT1
11 | CCCN(C(=O)c1cccs1)c1nc(-c2cc3ccccc3o2)cs1 [N-(4-(benzofuran-2-yl)thiazol-2-yl)-N-propylthiophene-2-carboxamide] | AKT1
12 | NC(=O)C1CCN(CCCN(C(=O)c2cccs2)c2nc(-c3cc4ccccc4o3)cs2)CC1 [1-(3-(N-(4-(benzofuran-2-yl)thiazol-2-yl)thiophene-2-carboxamido)propyl)piperidine-4-carboxamide] | AKT1
13 | O=C(c1cccs1)N(CCCN1CCC[C@H]1CO)c1nc(-c2cc3ccccc3o2)cs1 [(S)—N-(4-(benzofuran-2-yl)thiazol-2-yl)-N-(3-(2-(hydroxymethyl)pyrrolidin-1-yl)propyl)thiophene-2-carboxamide] | AKT1
14 | O=C(CCN(C(=O)c1cccs1)c1nc(-c2cc3ccccc3o2)cs1)N1CCSC1 [N-(4-(benzofuran-2-yl)thiazol-2-yl)-N-(3-oxo-3-(thiazolidin-3-yl)propyl)thiophene-2-carboxamide] | AKT1
15 | COC(=O)c1ccc(-c2csc(N(CCCN3CCOCC3)C(=O)c3cccs3)n2)nc1 [methyl 6-(2-(N-(3-morpholinopropyl)thiophene-2-carboxamido)thiazol-4-yl)nicotinate] | AKT1
16 | CCN(CC)CCCN(C(=O)c1ccccc1)c1nc(-c2ccc(OC)cc2)cs1 [N-(3-(diethylamino)propyl)-N-(4-(4-methoxyphenyl)thiazol-2-yl)benzamide] | AKT1
17 | O=C1COc2ccc(-c3csc(N(CCCN4CCOCC4)C(=O)c4cccs4)n3)cc2N1 [N-(3-morpholinopropyl)-N-(4-(3-oxo-3,4-dihydro-2H-benzo[b][1,4]oxazin-6-yl)thiazol-2-yl)thiophene-2-carboxamide] | AKT1
18 | O=C(CCCN(C(=O)c1cccs1)c1nc(-c2cc3ccccc3o2)cs1)N1Cc2ccccc2C1 [N-(4-(benzofuran-2-yl)thiazol-2-yl)-N-(4-(isoindolin-2-yl)-4-oxobutyl)thiophene-2-carboxamide] | AKT1
19 | COc1ccc(-c2csc(N(CCCN3CCOCC3)C(=O)c3cccs3)n2)c(OC)c1 [N-(4-(2,4-dimethoxyphenyl)thiazol-2-yl)-N-(3-morpholinopropyl)thiophene-2-carboxamide] | AKT1
20 | CC(CO)NC(=O)CCCN(C(=O)c1cccs1)c1nc(-c2cc3ccccc3o2)cs1 (stereo not drawn) [N-(4-(benzofuran-2-yl)thiazol-2-yl)-N-(4-(1-hydroxypropan-2-ylamino)-4-oxobutyl)thiophene-2-carboxamide] | AKT1

Row | SMILES | Activity
21 | COc1ccc(OC)c(-c2csc(N(CCCN3CCN(C)CC3)C(=O)c3ccccc3)n2)c1 [N-(4-(2,5-dimethoxyphenyl)thiazol-2-yl)-N-(3-(4-methylpiperazin-1-yl)propyl)benzamide] | AKT1
22 | COCCNC(=O)CCN(C(=O)c1cccs1)c1nc(-c2cc3ccccc3o2)cs1 [N-(4-(benzofuran-2-yl)thiazol-2-yl)-N-(3-(2-methoxyethylamino)-3-oxopropyl)thiophene-2-carboxamide] | AKT1
23 | CNC(=O)c1ccc(-c2csc(N(CCCN3CCOCC3)C(=O)c3cccs3)n2)cc1 [N-(4-(4-(methylcarbamoyl)phenyl)thiazol-2-yl)-N-(3-morpholinopropyl)thiophene-2-carboxamide] | AKT1
24 | CS(=O)(=O)N1CCN(CCCN(C(=O)c2cccs2)c2nc(-c3cc4ccccc4o3)cs2)CC1 [N-(4-(benzofuran-2-yl)thiazol-2-yl)-N-(3-(4-(methylsulfonyl)piperazin-1-yl)propyl)thiophene-2-carboxamide] | AKT1
25 | COc1ccc(-c2csc(N(CCCN3CCCCC3)C(=O)c3cccs3)n2)cc1 [N-(4-(4-methoxyphenyl)thiazol-2-yl)-N-(3-(piperidin-1-yl)propyl)thiophene-2-carboxamide] | AKT1
26 | O=C(c1cccs1)N(CCCN1CCOCC1)c1nc(-c2ccc(Cl)c(Cl)c2)cs1 [N-(4-(3,4-dichlorophenyl)thiazol-2-yl)-N-(3-morpholinopropyl)thiophene-2-carboxamide] | AKT1
27 | O=C(CCN(C(=O)c1cccs1)c1nc(-c2cc3ccccc3o2)cs1)NCCOc1ccccc1 [N-(4-(benzofuran-2-yl)thiazol-2-yl)-N-(3-oxo-3-(2-phenoxyethylamino)propyl)thiophene-2-carboxamide] | AKT1
28 | O=C(c1cccs1)N(CCCN1CCN(CCO)CC1)c1nc(-c2cc3ccccc3o2)cs1 [N-(4-(benzofuran-2-yl)thiazol-2-yl)-N-(3-(4-(2-hydroxyethyl)piperazin-1-yl)propyl)thiophene-2-carboxamide] | AKT1
29 | COc1cccc(-c2csc(N(CCCN3CCOCC3)C(=O)c3cccs3)n2)c1 [N-(4-(3-methoxyphenyl)thiazol-2-yl)-N-(3-morpholinopropyl)thiophene-2-carboxamide] | AKT1
30 | O=C(NCCN1CCOCC1)c1ccc(-c2csc(N(CCCN3CCOCC3)C(=O)c3cccs3)n2)cc1 [N-(4-(4-(2-morpholinoethylcarbamoyl)phenyl)thiazol-2-yl)-N-(3-morpholinopropyl)thiophene-2-carboxamide] | AKT1
31 | CCOC(=O)Cc1csc(NC(=O)c2csc(N(CCCN3CCOCC3)C(=O)c3cccs3)n2)n1 [ethyl 2-(2-(2-(N-(3-morpholinopropyl)thiophene-2-carboxamido)thiazole-4-carboxamido)thiazol-4-yl)acetate] | AKT1
32 | COc1ccc(-c2csc(N(CCCN3CCN(C)CC3)C(=O)c3cccs3)n2)cc1OC [N-(4-(3,4-dimethoxyphenyl)thiazol-2-yl)-N-(3-(4-methylpiperazin-1-yl)propyl)thiophene-2-carboxamide] | AKT1
33 | O=C(CCN1CCCCC1)NCCCN(C(=O)c1cccs1)c1nc(-c2cc3ccccc3o2)cs1 [N-(4-(benzofuran-2-yl)thiazol-2-yl)-N-(3-(3-(piperidin-1-yl)propanamido)propyl)thiophene-2-carboxamide] | AKT1
34 | O=C(NCCO)C1CCCN(C(=O)CCN(C(=O)c2cccs2)c2nc(-c3cc4ccccc4o3)cs2)C1 (stereo not drawn) [1-(3-(N-(4-(benzofuran-2-yl)thiazol-2-yl)thiophene-2-carboxamido)propanoyl)-N-(2-hydroxyethyl)piperidine-3-carboxamide] | AKT1
35 | CN(C)C(=O)[C@@H]1CCCN1CCCN(C(=O)c1cccs1)c1nc(-c2cc3ccccc3o2)cs1 [(S)-1-(3-(N-(4-(benzofuran-2-yl)thiazol-2-yl)thiophene-2-carboxamido)propyl)-N,N-dimethylpyrrolidine-2-carboxamide] | AKT1
36 | O=C(CCN(C(=O)c1cccs1)c1nc(-c2cc3ccccc3o2)cs1)N1Cc2ccccc2C1 [N-(4-(benzofuran-2-yl)thiazol-2-yl)-N-(3-(isoindolin-2-yl)-3-oxopropyl)thiophene-2-carboxamide] | AKT1
37 | O=C(CCCN(C(=O)c1cccs1)c1nc(-c2cc3ccccc3o2)cs1)N(CCO)Cc1ccncc1 [N-(4-(benzofuran-2-yl)thiazol-2-yl)-N-(4-((2-hydroxyethyl)(pyridin-4-ylmethyl)amino)-4-oxobutyl)thiophene-2-carboxamide] | AKT1
38 | O=C(NCCCO)c1ccc(-c2csc(N(CCCN3CCOCC3)C(=O)c3cccs3)n2)cc1 [N-(4-(4-(3-hydroxypropylcarbamoyl)phenyl)thiazol-2-yl)-N-(3-morpholinopropyl)thiophene-2-carboxamide] | AKT1
39 | COc1ccc(OC)c(-c2csc(N(CCCN3CCOCC3)C(=O)c3ccco3)n2)c1 [N-(4-(2,5-dimethoxyphenyl)thiazol-2-yl)-N-(3-morpholinopropyl)furan-2-carboxamide] | AKT1
